The text below walks through data of patent US20250302837A1, “INHIBITORS OF CHYMASE FOR USE IN THE SELECTIVE RESOLUTION OF THROMBI IN THROMBOTIC OR THROMBOEMBOLIC DISORDERS” (SOCPRA SCIENCES SANTÉ ET HUMAINES S.E.C., priority 2022, published 2025).

As usually defined, the IC50 is the point on the concentration scale where inhibition reaches its midpoint.

Some results are limits rather than exact numbers.

The target of data set [1] is plasminogen/plasmin (Homo sapiens (Human), UniProt P00747). Put plainly: Halo assay: tPA-induced fibrinolysis of human blood halos, plasmin inhibitor control. As to conditions: 0.1 μM or 1 μM co-administered with tPA, pre-formed halo.
The conditions of data set [2]: oral intake; cited from earlier work.
Data set [3] concerns the target Mouse chymase (rmMCP-4) (Mus musculus (Mouse), UniProt P21812). Put plainly: Mouse plasmin degradation by chymase, cleavage products by LC-MS/MS. In kind it is biochemical. As to conditions: FIG. 3B.
Experimental: (§6) The reaction was stopped with an equal volume of formic acid (FA) (for a final concentration of 4% (v/v) in water) and samples were maintained on ice until protein precipitation.
Proteins from in vitro cleavage assays were first precipitated by the addition of trichloroacetic acid (TCA) to a final concentration of 10% (v/v) and incubated for 30 min at −20° C. […] Protein pellet was washed with cold 100% acetone, air dried, and re-suspended in 50 μL of a solution containing 8 M urea, 10 mM HEPES-KOH (pH 7.4). The protein reduction step was carried out by adding DTT (Thermo Fisher Scientific, Waltham, MA, USA) to a final concentration of 5 mM and boil at 95° C. for 2 min, then incubated at room temperature for 30 min. […] Urea concentration was decreased to 2 M by the addition of 150 μL of 50 mM ammonium bicarbonate (NH4HCO3). The proteins were digested by adding 1 g Pierce MS-grade trypsin (Thermo Fisher Scientific, Waltham, MA, USA) and incubated overnight at 30° C. Digestion was stopped by adding trifluoroacetic acid (TFA) to a final concentration of 0.2% (v/v). The peptides were purified with Pierce C18 100-μL tips column (Thermo Fisher Scientific, Waltham, MA, USA). Briefly, the C18 tip column was first moistened by suctioning 100 μL of 100% acetonitrile (ACN) three times, then equilibrated by suctioning 100 μL of 0.1% (v/v) TFA buffer 3 times. […]
The target of data set [4] is recombinant mouse mMCP-4 (rmMCP-4) (Mus musculus (Mouse), UniProt P21812). Description: Plasmin activity in the presence of murine chymase. In kind it is biochemical. As to conditions: mouse plasmin + rmMCP-4; fulacimstat 0.1-[…], TY-51469 0.1 or 1 μM. The procedure: Active murine cathepsin C was diluted to 20 μg/mL in cathepsin C buffer (50 mM MES, 50 mM NaCl, 5 mM DTT, pH 5.5). Activation was performed by adding equal volumes of recombinant chymase and cathepsin C, adding 50 μg/mL heparin and incubating 1 h at room temperature. […] Plasmin activity was determined by the hydrolysis rate of 50 μM of substrate, D-Ala-Leu-Lys-7-amido-4-methylcoumarin (Sigma Aldrich, Saint-Louis, MO, USA) at 37° C. for 1 h, combined in a white 96-well microtitre plate.

For data set [5] the following is noted: cited from earlier work.
The subject of data set [6] is mouse FeCl3-induced injury thrombosis model. Put plainly: Ferric chloride-induced injury at the inferior vena cava in mouse. As to conditions: mouse IVC FeCl3 injury; 10 mg/kg TY-51469 intraperitoneal 1 h prior to anesthesia. The data set is classed as in vivo.
Experimental: A laparotomy was performed, and the guts were gently displaced without injury from the abdominal cavity and conserved in 0.9% NaCl solution (37° C.). The IVC was exposed by separation of the vessel between the renal and iliolumbar veins. […] The guts were subsequently moved back in their original location in the abdomen. Mice were sacrificed 30 min later to access the thrombotic area in the IVC. IVCs were dissected and thrombi were isolated and weighted with an analytical balance (0.1 mg accuracy, Entris II, Sartorius).
In data set [7] the target is T1, human chymase (rCMA-1) (Homo sapiens (Human), UniProt P23946). Description: Plasmin activity in the presence of human chymase. As to conditions: human plasmin + rCMA-1; fulacimstat 0.1-[…], TY-51469 0.1 or 1 μM. The data set is classed as biochemical. The procedure:
Active murine cathepsin C was diluted to 20 μg/mL in cathepsin C buffer (50 mM MES, 50 mM NaCl, 5 mM DTT, pH 5.5). Activation was performed by adding equal volumes of recombinant chymase and cathepsin C, adding 50 μg/mL heparin and incubating 1 h at room temperature.

In data set [8] the test system is mouse venous stenosis model. Put plainly: Blood flow (Doppler ultrasound) in venous stenosis model in mice. In kind it is in vivo. The source says: The main goal in thrombosis is to ensure sufficient blood flow for an appropriate maintenance of the tissue surrounding the vessel. […] Mice were anesthetized during the procedure (2% isoflurane; 4% oxygen) and their abdomens were shaved and covered with ultrasound gel.

In data set [9] the target is recombinant hamster chymase. Put plainly: Enzymatic chymase activity assay (hamster).
For data set [10], the target named is Trypsin (Homo sapiens, UniProt P07477). Description: Serine protease selectivity assay: trypsin. In kind it is biochemical. The procedure: (§1) The potency of test compounds against several other human serine proteases, including coagulation proteases, in buffer was analyzed in biochemical assays based on the fluorimetric detection of aminomethylcoumarine (AMC) cleaved from specific synthetic peptidic substrates by the respective proteases.
(§2) Serine protease assays were comprised of the following enzymes and substrates (final assay concentrations are given).
(§3) Test compounds were diluted in dimethylsulfoxide (DMSO) to final assay concentrations of 0-50 μM. The respective human serine protease and the respective substrate were diluted in buffer solutions (pH 7.4) consisting of 50 mM Tris/HCl, 100 mM NaCl, 5 mM CaCl2, and 0.1% bovine serum albumin to the final concentrations given below. Diluted test compound or DMSO (1 μL) in assay buffer (20 μL), diluted serine protease solution (20 μL), and substrate solution (20 μL) were added to 384-well microtiter plates (Greiner Bio-One, Frickenhausen, Germany).

Data set [11] addresses Plasmin (Homo sapiens (Human), UniProt P00747). Put plainly: Serine protease selectivity assay: plasmin. In kind it is biochemical. As to the method:
as §1, §2, §3

The target in data set [12] is Plasma kallikrein (Homo sapiens (Human), UniProt P03952). Description: Serine protease selectivity assay: plasma kallikrein. The data set is classed as biochemical. As to the method:
as §1, §2, §3

The target of data set [13] is Recombinant human cathepsin G (Homo sapiens (Human), UniProt P08311). Put plainly: Selectivity: cathepsin G assay. The data set is classed as biochemical. The procedure:
Recombinant human cathepsin G (CathG) protein (Protein Technologies, Bayer A G) was used. […] IC50 values were calculated using an in-house software.

Data set [14] concerns the target Factor XIa (Homo sapiens (Human), UniProt P03951). Description: Serine protease selectivity assay: factor XIa. In kind it is biochemical. The procedure:
as §1, §2, §3

Data set [15] has as its target Factor Xa (Homo sapiens (Human), UniProt P00742). Put plainly: Serine protease selectivity assay: factor Xa. In kind it is biochemical. The procedure:
as §1, §2, §3

Data set [16] addresses recombinant human chymase (Homo sapiens (Human), UniProt P23946). Put plainly: Enzymatic chymase activity assay (human).
Data set [17] addresses Tissue plasminogen activator (Homo sapiens (Human), UniProt P00750). Put plainly: Serine protease selectivity assay: tPA. The data set is classed as biochemical. The procedure: as §1, §2, §3
Data set [18] concerns the target plasmin in mouse thrombus extracts (Mus musculus (Mouse), UniProt P20918). Put plainly: Intra-thrombus plasmin enzymatic activity ex vivo, mouse thrombi. As to conditions: thrombus from venous stenosis in mouse, +10 μM TY-51469. In kind it is biochemical. As to the method:
(§4) Plasmin activity was determined by the hydrolysis rate of 50 μM of substrate, D-Ala-Leu-Lys-7-amido-4-methylcoumarin (Sigma Aldrich, Saint-Louis, MO, USA) at 37° C. for 1 h. Chymase activity was determined by the hydrolysis rate of 10 μM of substrate, Suc-Leu-Leu-Val-Tyr-7-amido-4-methylcoumarin (Peptide Institute Inc., Osaka, Japan) at 37° C. for 1 h. The fluorescence released was measured with an Infinite M1000 spectrophotometer (Tecan Group Ltd., Mannerdorf, Switzerland) with λex=370 nm and λem=460 nm.

For data set [19], the target named is T1, human chymase (rCMA-1). Description: Human plasmin degradation by chymase, cleavage products by LC-MS/MS. In kind it is biochemical. As to conditions: FIG. 3A.
Experimental: as §6
Proteins from in vitro cleavage assays were first precipitated by the addition of trichloroacetic acid (TCA) to a final concentration of 10% (v/v) and incubated for 30 min at −20° C. […] Protein pellet was washed with cold 100% acetone, air dried, and re-suspended in 50 μL of a solution containing 8 M urea, 10 mM HEPES-KOH (pH 7.4). […] The proteins were digested by adding 1 g Pierce MS-grade trypsin (Thermo Fisher Scientific, Waltham, MA, USA) and incubated overnight at 30° C. Digestion was stopped by adding trifluoroacetic acid (TFA) to a final concentration of 0.2% (v/v). The peptides were purified with Pierce C18 100-μL tips column (Thermo Fisher Scientific, Waltham, MA, USA). Briefly, the C18 tip column was first moistened by suctioning 100 μL of 100% acetonitrile (ACN) three times, then equilibrated by suctioning 100 μL of 0.1% (v/v) TFA buffer 3 times. Each peptide sample was passed on the balanced C18 tip column by 10 succeeding up-and-downs of 100 μL of the sample. This step was performed twice in order to administer the entire sample on the column. The C18 tip column was then washed with 100 μL of 0.1% (v/v) TFA buffer 3 times. […] This step was carried out 3 times to obtain a final volume of 300 μL. […]
For data set [20], the system named is mouse venous stenosis (DVT) model. Description: Venous stenosis model in mouse (IVC), thrombus measurement. The data set is classed as in vivo. As to the method: By doing this, we ensure that the endothelium is not denuded and that a residual flow of 10% in the IVC still remains. The guts were subsequently moved back in their original location in the abdomen and the abdominal cavity was closed in layers with a braided 5.0 absorbable suture. […] The IVCs were dissected post-euthanasia, and thrombi isolated, measured, weighed, and finally stored at −80° C.
(§5) The stenosis was evaluated 24- or 48-hours post-ligation. The IVCs were dissected, and thrombi were isolated, measured, and weighted.
as §5

In data set [21] the target is Thrombin (Homo sapiens (Human), UniProt P00734). Description: Serine protease selectivity assay: thrombin. In kind it is biochemical. As to the method:
as §1, §2, §3

Data set [22] has as its system chymase in mouse thrombus extracts. Put plainly: Intra-thrombus chymase enzymatic activity ex vivo, mouse thrombi. As to conditions: thrombus from venous stenosis in mouse, +10 μM TY-51469. The data set is classed as biochemical. The procedure:
as §4

Data set [23] has as its system mouse tail bleeding model. Description: Tail bleeding time in mouse. In kind it is in vivo. As to the method:
The tail was cut 3 mm starting from the extremity. The time at which the bleeding stopped was noted. After 30 min, all animals were euthanized.

[24] abbreviates: 10 mg/kg TY-51469 i.p. 1 h after start of stenosis, 6 h post-ligation.
Setting [25] is: 10 mg/kg TY-51469 i.p. 1 h after start of stenosis, 24 h post-ligation.
[26] abbreviates: TY-51469 group, non-ligated (pre-ligation baseline).
The mark [27] stands for this setting: TY-51469 0.1 mg/kg i.p. 1 h after initiation of stenosis, observation 24 h.
[28] abbreviates: TY-51469 1 mg/kg i.p. 1 h after initiation of stenosis, observation 24 h.
Where [29] appears, read: TY-51469 10 mg/kg i.p. 1 h after initiation of stenosis, observation 24 h.
Where [30] appears, read: TY-51469 10 mg/kg i.p. 24 h after initiation of stenosis, observation 48 h.

In the case of `Cl.O=c1cc(C2CCNCC2)n2nc3cccc(Cl)c3c2[nH]1` [Example 3 in WO2015067549], the “tPA-induced fibrinolysis of human blood halos” value in data set [1] was “very significantly reduced”.
`Cn1c(=O)oc2cc(-n3cc(C(=O)O)c(=O)n([C@@H]4CCc5c4cccc5C(F)(F)F)c3=O)ccc21` [fulacimstat, 1-(3-methyl-2-oxo-2,3-dihydro-1,3-benzoxazol-6-yl)-2,4-dioxo-3-[(1R)-4-(trifluoromethyl)-2,3-dihydro-1H-inden-1-yl]-1,2,3,4-tetrahydropyrimidine-5-carboxylic acid]: the oral bioavailability entry in [2] is on record as “bioavailable after oral intake”. Moreover, the “degradation of plasmin by chymase” value in data set [3] is listed as “prevented”. The “plasmin activity (fluorescence generation) in presence of chymase” value in data set [4] is recorded as “increased again concentration-dependently”.
For “tPA: Recombinant tissue-type plasminogen activator (rtPA, alteplase), the most widely used fibrinolytic drug”, the “dominant half-life in human plasma” value in [5] is recorded as < 5 min.
For `Cc1c(S(=O)(=O)Nc2ccc(-c3nc(C(=O)O)cs3)cc2S(C)(=O)=O)sc2ccc(F)cc12` [TY-51469, 2-(4-((5-fluoro-3-methylbenzo-[b]thiophene)-2-sulfonamido)-3-(methylsulfonyl)phenyl)thiazole-4-carboxylic acid], the Thrombus weight in data set [6] worked out at 1.31 mg; in data set [20] (setting [27]), 8.19 mg; in [20] (setting [28]), 4.04 mg; in data set [20] (setting [29]), 0.47 mg; in data set [20] (setting [30]), 1.29 mg. Also, the “plasmin activity (fluorescence generation) in presence of chymase” value in data set [7] and in [4] was “increased again concentration-dependently” in each case. Also, the Abdominal aorta velocity in data set [8] (setting [24]) is listed as 487.6 ± 33.1 mm/s; in data set [8] (setting [25]), 505.8 ± 40.4 mm/s; in data set [8] (setting [26]), 508.2 ± 29.7 mm/s. Also, the “Inferior vena cava velocity” value in [8] (setting [24]) turned out to be 171.6 ± 27.1 mm/s; in data set [8] (setting [25]) it was 158.5 ± 18.3 mm/s; in [8] (setting [26]), 124.6 ± 28.7 mm/s. The half-inhibitory concentration (IC50) was 66 nM in [9]; > 2000 nM in data set [10]; > 2000 nM in [11]; > 2000 nM in data set [12]; 1300 nM in [13] (Cathepsin G); > 2000 nM in data set [14]. Besides, the IC50 is > 2000 nM in data set [15], 20 nM in [16], > 2000 nM in data set [17] and > 2000 nM in [21]. The “less potency on cathepsin G than chymase” value in [13] (cathepsin G vs chymase) was 60 fold. The “degradation of plasmin by chymase” value in [3] and in data set [19] was “prevented” throughout. Besides, the Plasmin activity in [18] is recorded as 13.16 ± 1.26 nM AMC. Moreover, the Thrombus length came to 3.79 mm in data set [20] (setting [27]), 1.79 mm in data set [20] (setting [28]), 0.22 mm in [20] (setting [29]) and 1.0 mm in [20] (setting [30]). For the same molecule, in [22], the Chymase activity is on record as 0.33 ± 0.25 nM AMC. Moreover, the “impact on bleeding time (in words)” value in data set [23] (mouse tail bleeding model) is on record as “no impact on the bleeding time”. The Bleeding time prolongation in data set [23] (mouse tail bleeding, TY-51469 10 mg/kg) was 1.0 xfold of Ctr. Moreover, in data set [23] (mouse tail bleeding, TY-51469 10 mg/kg IP 1 h prior), the Bleeding time is recorded as 4.08 min.
